Test results from patent US20110082130A1 (LIGAND PHARMACEUTICALS, INC., priority 2006, published 2011).

Target: T1, chimeric human H3 receptor (Homo sapiens, UniProt Q9Y5N1)
T1 construct: made in house; host or cells: Sf9 insect cells (baculovirus); P2 membrane preparation
Assay: Chimeric human H3 receptor GTP binding assay (agonist-stimulated GTP-gamma35S binding, Example 7)
Assay type: biochemical
Conditions: Table I; P2 membranes of Sf9 cells, 1 μM histamine as agonist, Ki from IC50 by Cheng-Prusoff
Method in brief: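 Sf9 membranes co-expressing chimeric human H3 receptor and heterotrimeric G-protein, 35 μg/tube, in pH 7.4 Tris buffer with 10 μM GDP. Test compounds (10^−10–10^−6 M) competed against 1 μM histamine, […] GTP-gamma35S, 60 min at room temperature. Filter-bound radioactivity counted; IC50 converted to Ki by Cheng-Prusoff. Agonism/inverse agonism tested without histamine (EC50).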

T1 sequence (Q9Y5N1 with tags, fused parts or gaps): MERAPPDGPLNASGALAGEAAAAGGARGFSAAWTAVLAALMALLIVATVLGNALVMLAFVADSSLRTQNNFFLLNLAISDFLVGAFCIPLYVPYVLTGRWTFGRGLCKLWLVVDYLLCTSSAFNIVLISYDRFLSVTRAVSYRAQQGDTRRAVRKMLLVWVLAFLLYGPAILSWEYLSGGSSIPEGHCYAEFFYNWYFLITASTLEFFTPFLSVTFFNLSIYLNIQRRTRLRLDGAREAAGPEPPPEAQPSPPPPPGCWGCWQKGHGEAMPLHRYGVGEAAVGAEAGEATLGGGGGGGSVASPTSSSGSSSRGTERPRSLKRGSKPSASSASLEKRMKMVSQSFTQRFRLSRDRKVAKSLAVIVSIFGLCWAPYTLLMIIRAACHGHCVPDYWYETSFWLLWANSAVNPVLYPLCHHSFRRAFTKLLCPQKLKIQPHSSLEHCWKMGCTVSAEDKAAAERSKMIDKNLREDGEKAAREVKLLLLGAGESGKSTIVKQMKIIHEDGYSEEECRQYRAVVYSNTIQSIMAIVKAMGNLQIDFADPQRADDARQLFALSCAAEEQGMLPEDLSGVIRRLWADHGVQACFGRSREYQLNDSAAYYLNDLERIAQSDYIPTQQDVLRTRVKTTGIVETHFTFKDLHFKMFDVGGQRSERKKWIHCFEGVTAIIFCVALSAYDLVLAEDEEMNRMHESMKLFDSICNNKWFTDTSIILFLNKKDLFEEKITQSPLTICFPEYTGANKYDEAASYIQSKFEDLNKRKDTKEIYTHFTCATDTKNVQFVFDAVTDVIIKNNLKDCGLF

Ki, < 1 µM:
COc1ccc2c(c1)CCN(CC(=O)N1CCN(C3CCC3)CC1)CC2 [Compound 77, 3-[2-(4-cyclobutylpiperazin-1-yl)-2-oxoethyl]-7-methoxy-2,3,4,5-tetrahydro-1H-3-benzazepine]
O=C(CN1CCc2ncccc2C1)N1CCN(C2CCC2)CC1 [Compound 65, 6-[2-(4-cyclobutylpiperazin-1-yl)-2-oxoethyl]-5,6,7,8-tetrahydro-1,6-naphthyridine]
Cc1noc(C)c1-c1ccc2c(c1)CCN(CC(=O)N1CCN(C3CCC3)CC1)C2 [Compound 68, 2-[2-(4-cyclobutylpiperazin-1-yl)-2-oxoethyl]-6-(3,5-dimethylisoxazol-4-yl)-1,2,3,4-tetrahydroisoquinoline]

Same assay, conditions: Table II "Ki", symbol *; assay of Example 7

Ki, < 1 µM:
CCC(CC)CNc1ccc2c(n1)CCN(CC(=O)N1CCN(C3CCC3)CC1)C2 [Compound 660, 6-[2-(4-cyclobutylpiperazin-1-yl)-2-oxoethyl]-N-(2-ethylbutyl)-5,6,7,8-tetrahydro-1,6-naphthyridin-2-amine]
O=C(CN1CCc2cc(-c3cnc4ccccc4c3)ccc2C1)N1CCN(C2CCC2)CC1 [Compound 638, 3-{2-[2-(4-cyclobutylpiperazin-1-yl)-2-oxoethyl]-1,2,3,4-tetrahydroisoquinolin-6-yl}quinoline]
COc1ccc(-c2ccc3c(c2)CCN(CC(=O)N2CCN(C4CCC4)CC2)C3)cc1OC [Compound 524, 2-[2-(4-cyclobutylpiperazin-1-yl)-2-oxoethyl]-6-(3,4-dimethoxyphenyl)-1,2,3,4-tetrahydroisoquinoline]
CC(C)C(C)Nc1ccc2c(n1)CCN(CC(=O)N1CCN(C3CCC3)CC1)C2 (stereo not drawn) [Compound 661, 6-[2-(4-cyclobutylpiperazin-1-yl)-2-oxoethyl]-N-(1,2-dimethylpropyl)-5,6,7,8-tetrahydro-1,6-naphthyridin-2-amine]
CC1CCCC1N1CCN(C(=O)CN2CCc3cc(-c4cncnc4)ccc3C2)CC1 (stereo not drawn) [Compound 613, 2-{2-[4-(2-methylcyclopentyl)piperazin-1-yl]-2-oxoethyl}-6-pyrimidin-5-yl-1,2,3,4-tetrahydroisoquinoline]
CC1CCCCC1N1CCN(C(=O)CN2CCc3cc(-c4cncnc4)ccc3C2)CC1 (stereo not drawn) [Compound 619, 2-{2-[4-(2-methylcyclohexyl)piperazin-1-yl]-2-oxoethyl}-6-pyrimidin-5-yl-1,2,3,4-tetrahydroisoquinoline]

Same assay, conditions: Table II; "*" = Ki in assay of Example 7 less than 1 micromolar

Ki, < 1 µM:
Cn1cc(-c2cc3c(s2)CCN(CC(=O)N2CCN(C4CCC4)CC2)C3)ccc1=O [Compound 270, 5-{5-[2-(4-cyclobutylpiperazin-1-yl)-2-oxoethyl]-4,5,6,7-tetrahydrothieno[3,2-c]pyridin-2-yl}-1-methylpyridin-2(1H)-one]
CN(C)c1ccc2c(n1)CCN(CC(=O)N1CCN(C3CCC3)CC1)C2 [Compound 224, 6-[2-(4-cyclobutylpiperazin-1-yl)-2-oxoethyl]-N,N-dimethyl-5,6,7,8-tetrahydro-1,6-naphthyridin-2-amine]
O=C(CN1CCc2nc(Br)sc2C1)N1CCN(C2CCC2)CC1 [Compound 97, 2-bromo-5-[2-(4-cyclobutylpiperazin-1-yl)-2-oxoethyl]-4,5,6,7-tetrahydro[1,3]thiazolo [5,4-c]pyridine]
O=C(CN1CCc2cc(-c3cncnc3)nnc2C1)N1CCN(C2CCC2)CC1 [Compound 232, 7-[2-(4-cyclobutylpiperazin-1-yl)-2-oxoethyl]-3-pyrimidin-5-yl-5,6,7,8-tetrahydropyrido[3,4-c]pyridazine]
O=C(CN1CCc2nn(-c3ccc(C4CC4)nn3)cc2C1)N1CCN(C2CCC2)CC1 [Compound 260, 5-[2-(4-cyclobutylpiperazin-1-yl)-2-oxoethyl]-2-(6-cyclopropylpyridazin-3-yl)-4,5,6,7-tetrahydro-2H-pyrazolo[4,3-c]pyridine]
O=C(CN1CCc2nc(-c3cccnc3)ncc2C1)N1CCN(C2CCC2)CC1 [Compound 143, 6-[2-(4-cyclobutylpiperazin-1-yl)-2-oxoethyl]-2-pyridin-3-yl-5,6,7,8-tetrahydropyrido[4,3-d]pyrimidine]
O=C(CN1CCc2nc(C3CC3)ncc2C1)N1CCN(C2CCC2)CC1 [Compound 276, 6-[2-(4-cyclobutylpiperazin-1-yl)-2-oxoethyl]-2-cyclopropyl-5,6,7,8-tetrahydropyrido[4,3-d]pyrimidine]
O=C(CN1CCc2cc(C(=O)N3CCCC3)ccc2C1)N1CCN(C2CCC2)CC1 [Compound 89, 2-[2-(4-cyclobutylpiperazin-1-yl)-2-oxoethyl]-6-(pyrrolidin-1-ylcarbonyl)-1,2,3,4-tetrahydroisoquinoline]
Cn1cc(-c2ccc3c(c2)CCN(CC(=O)N2CCN(C4CCC4)CC2)C3)ccc1=O [Compound 192, 5-{2-[2-(4-cyclobutylpiperazin-1-yl)-2-oxoethyl]-1,2,3,4-tetrahydroisoquinolin-6-yl}-1-methylpyridin-2(1H)-one]
CCCn1cc(-c2ccc3c(c2)CCN(CC(=O)N2CCN(C4CCC4)CC2)C3)ccc1=O [Compound 281, 5-{2-[2-(4-cyclobutylpiperazin-1-yl)-2-oxoethyl]-1,2,3,4-tetrahydroisoquinolin-6-yl}-1-propylpyridin-2(1H)-one]
O=C(CN1CCc2cc(-n3ncc4ccccc43)ccc2C1)N1CCN(C2CCC2)CC1 [Compound 230, 2-[2-(4-cyclobutylpiperazin-1-yl)-2-oxoethyl]-6-(1H-indazol-1-yl)-1,2,3,4-tetrahydroisoquinoline]
O=C(NC1CCCC1)c1ccc2c(c1)CCN(CC(=O)N1CCN(C3CCC3)CC1)C2 [Compound 88, 2-[2-(4-cyclobutylpiperazin-1-yl)-2-oxoethyl]-N-cyclopentyl-1,2,3,4-tetrahydroisoquinoline-6-carboxamide]
CSc1nc2c(o1)CN(CC(=O)N1CCN(C3CCC3)CC1)CC2 [Compound 107, 5-[2-(4-cyclobutylpiperazin-1-yl)-2-oxoethyl]-2-(methylthio)-4,5,6,7-tetrahydro[1.3]oxazolo [5,4-c]pyridine]
Cc1ccc(-c2ccc3c(c2)CCN(CC(=O)N2CCN(C4CCC4)CC2)C3)nn1 [Compound 166, 2-[2-(4-cyclobutylpiperazin-1-yl)-2-oxoethyl]-6-(6-methylpyridazin-3-yl)-1,2,3,4-tetrahydroisoquinoline]

Same assay, conditions: assay of Example 7; "*" in Ki of Table II

Ki, < 1 µM:
O=C(CN1CCc2nc(-c3cccc4c3oc3ccccc34)sc2C1)N1CCN(C2CCC2)CC1 [Compound 342, 5-[2-(4-cyclobutylpiperazin-1-yl)-2-oxoethyl]-2-dibenzo[b,d]furan-4-yl-4,5,6,7-tetrahydro[1,3]thiazolo [5,4-c]pyridine]
CCOc1ccc(-c2nc3c(s2)CN(CC(=O)N2CCN(C4CCC4)CC2)CC3)cc1 [Compound 330, 5-[2-(4-cyclobutylpiperazin-1-yl)-2-oxoethyl]-2-(4-ethoxyphenyl)-4,5,6,7-tetrahydro[1,3]thiazolo [5,4-c]pyridine]
COc1ccc(Cl)cc1-c1nc2c(s1)CN(CC(=O)N1CCN(C3CCC3)CC1)CC2 [Compound 338, 2-(5-chloro-2-methoxyphenyl)-5-[2-(4-cyclobutylpiperazin-1-yl)-2-oxoethyl]-4,5,6,7-tetrahydro[1,3]thiazolo [5,4-c]pyridine]
CCC(C)N1CCN(C(=O)CN2CCc3cc(-c4cncnc4)ccc3C2)CC1 (stereo not drawn) [Compound 397, 2-[2-(4-sec-butylpiperazin-1-yl)-2-oxoethyl]-6-pyrimidin-5-yl-1,2,3,4-tetrahydroisoquinoline]
O=C(CN1CCc2cc(-c3ccc4c(c3)OCO4)ccc2C1)N1CCN(C2CCC2)CC1 [Compound 377, 6-(1,3-benzodioxol-5-yl)-2-[2-(4-cyclobutylpiperazin-1-yl)-2-oxoethyl]-1,2,3,4-tetrahydroisoquinoline]
O=C(CN1CCc2cc(-c3ccc(=O)n(CC(F)(F)F)c3)ccc2C1)N1CCN(C2CCC2)CC1 [Compound 283, 5-{2-[2-(4-cyclobutylpiperazin-1-yl)-2-oxoethyl]-1,2,3,4-tetrahydroisoquinolin-6-yl}-1-(2,2,2-trifluoroethyl)pyridin-2(1H)-one]
CCOc1ccccc1-c1nc2c(s1)CN(CC(=O)N1CCN(C3CCC3)CC1)CC2 [Compound 341, 5-[2-(4-cyclobutylpiperazin-1-yl)-2-oxoethyl]-2-(2-ethoxyphenyl)-4,5,6,7-tetrahydro[1,3]thiazolo [5,4-c]pyridine]
O=C(CN1CCc2nc(-c3cc(Cl)ccc3Cl)sc2C1)N1CCN(C2CCC2)CC1 [Compound 364, 5-[2-(4-cyclobutylpiperazin-1-yl)-2-oxoethyl]-2-(2,5-dichlorophenyl)-4,5,6,7-tetrahydro[1,3]thiazolo [5,4-c]pyridine]
CC(C)c1cccc(-c2nc3c(s2)CN(CC(=O)N2CCN(C4CCC4)CC2)CC3)c1 [Compound 306, 5-[2-(4-cyclobutylpiperazin-1-yl)-2-oxoethyl]-2-(3-isopropylphenyl)-4,5,6,7-tetrahydro[1,3]thiazolo [5,4-c]pyridine]
Cc1ccc(F)c(-c2nc3c(s2)CN(CC(=O)N2CCN(C4CCC4)CC2)CC3)c1Cl [Compound 365, 2-(2-chloro-6-fluoro-3-methylphenyl)-5-[2-(4-cyclobutylpiperazin-1-yl)-2-oxoethyl]-4,5,6,7-tetrahydro[1,3]thiazolo [5,4-c]pyridine]
